Measured values taken from BigSolDB 2.1.

CS(=O)(=O)c1ccc(C=O)cc1
solubility (mole fraction)
Details	in acetic acid	in acetone	in acetonitrile	in ethanol	in isopropanol	in methanol	in n-butanol	in n-propanol	in toluene
283.15 K	0.00336	0.00798	0.00598	0.000869	0.000288	0.00206	0.000596	0.000541	0.000746
285.65 K	0.00368	0.00872	0.00661	0.000944	0.000321	0.0022	0.000652	0.000587	0.000825
288.15 K	0.00401	0.00937	0.00734	0.00103	0.000355	0.00242	0.000724	0.000659	0.000919
290.65 K	0.00445	0.0104	0.00814	0.00117	0.000405	0.00266	0.000828	0.000742	0.00103
293.15 K	0.00488	0.0114	0.00903	0.0013	0.000445	0.00295	0.000923	0.000835	0.00115
295.65 K	0.00539	0.0126	0.0101	0.00143	0.000502	0.00325	0.00102	0.000933	0.00128
298.15 K	0.00598	0.0136	0.0111	0.00158	0.00056	0.00358	0.00114	0.00105	0.00144
300.65 K	0.00662	0.0148	0.0123	0.00174	0.000629	0.00392	0.00128	0.00115	0.00161
303.15 K	0.00727	0.0161	0.0137	0.00192	0.000703	0.00431	0.0014	0.00126	0.0018
305.65 K	0.00811	0.0174	0.0152	0.00212	0.000796	0.00471	0.00155	0.00141	0.002
308.15 K	0.00895	0.0189	0.017	0.00235	0.000894	0.00518	0.00171	0.00157	0.00224
310.65 K	0.00984	0.0206	0.019	0.00258	0.00101	0.00572	0.00191	0.00176	0.0025
313.15 K	0.0108	0.0226	0.021	0.00284	0.00112	0.00623	0.00211	0.00194	0.00276
315.65 K	0.0118	0.0245	0.023	0.00311	0.00125	0.00678	0.00232	0.00216	0.00308
318.15 K	0.0129	0.0269	0.0252	0.00341	0.00139	0.00739	0.0026	0.00241	0.0034
